Article PMC5454922, “Interaction of Biliverdin Chromophore with Near-Infrared Fluorescent Protein BphP1-FP Engineered from Bacterial Phytochrome” (International Journal of Molecular Sciences, 2017)

Tests used:
Assay type in all cases: binding
BphP1-FP [1] = target: T1, BphP1-FP (Rhodopseudomonas palustris, UniProt A0A161I5N6, C19S, form not given); assay: absorption and fluorescence spectroscopy of purified holoprotein; details: non-covalent (no reactive Cys); otherwise same
T1 construct: engineered near-infrared fluorescent protein from PAS-GAF (CBD) of RpBphP1, lacks PHY and effector domains; N-terminal polyhistidine tag (pBAD/His-B); E. coli LMG194 with heme oxygenase; monomer, about 35 kDa
T1 sequence (A0A161I5N6 1-314 C19S limits assumed): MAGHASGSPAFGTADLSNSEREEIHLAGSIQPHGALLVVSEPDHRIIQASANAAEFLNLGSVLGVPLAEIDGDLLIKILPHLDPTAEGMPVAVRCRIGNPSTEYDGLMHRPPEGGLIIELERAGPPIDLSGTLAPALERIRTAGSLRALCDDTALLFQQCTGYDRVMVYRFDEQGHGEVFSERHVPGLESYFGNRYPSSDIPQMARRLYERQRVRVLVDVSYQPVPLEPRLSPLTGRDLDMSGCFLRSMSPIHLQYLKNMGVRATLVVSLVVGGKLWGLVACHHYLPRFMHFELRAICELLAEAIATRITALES

BphP1-FP [2] = target: T2, BphP1-FP (Rhodopseudomonas palustris, UniProt A0A161I5N6, I252C, form not given); assay: zinc-induced fluorescence on SDS-PAGE; absorption and fluorescence spectroscopy; details: covalent, to Cys256 (GAF) and partly also Cys15 (PAS); co-expressed heme oxygenase supplies BV; 20 mM Tris/HCl pH 8.0, 1 mM TCEP
T2 construct: engineered near-infrared fluorescent protein from PAS-GAF (CBD) of RpBphP1, lacks PHY and effector domains; N-terminal polyhistidine tag (pBAD/His-B); E. coli LMG194 with heme oxygenase; monomer, about 35 kDa
T2 sequence (A0A161I5N6 1-314 I252C limits assumed): as the sequence (A0A161I5N6 1-314 C19S limits assumed) above, with S19C, I252C counted along it

BphP1-FP [3] = target: T3, BphP1-FP (Rhodopseudomonas palustris, UniProt A0A161I5N6, C19S/I252C, form not given); assay: as above; details: covalent, to Cys256 (GAF) only; otherwise same
T3 construct: engineered near-infrared fluorescent protein from PAS-GAF (CBD) of RpBphP1, lacks PHY and effector domains; N-terminal polyhistidine tag (pBAD/His-B); E. coli LMG194 with heme oxygenase; monomer, about 35 kDa
T3 sequence (A0A161I5N6 1-314 C19S/I252C limits assumed): as the sequence (A0A161I5N6 1-314 C19S limits assumed) above, with I252C counted along it

## C=CC1=C(C)C(=Cc2[nH]c(C=C3N=C(C=C4NC(=O)C(C)=C4C=C)C(C)=C3CCC(=O)O)c(CCC(=O)O)c2C)NC1=O [BV, biliverdin]
BphP1-FP [1]
  absorption and fluorescence spectroscopy of purified holoprotein: Absorption and fluorescence spectra of BphP1-FP/C15S/C256I mutant without Cys15 and Cys256 residues
BphP1-FP [2]
  zinc-induced fluorescence on SDS-PAGE; absorption and fluorescence spectroscopy: The zinc-staining assay confirmed the covalent binding of the BV chromophore in BphP1-FP, BphP1-FP/C256I
BphP1-FP [3]
  zinc-induced fluorescence on SDS-PAGE; absorption and fluorescence spectroscopy: there was no non-covalently bound BV in BphP1-FP/C15S
